pEC50: −log10 of the molar value.
Target: Human GLP-1R (Homo sapiens, UniProt P43220)
Assay: cAMP level determination in human GLP-1R stably transfected HEK293T cells (HTRF cAMP kit)
Format: cell-based
Conditions: 37°C 30 min
Protocol: Human GLP-1R HEK293T stably transfected cells were digested with trypsin, terminated with DMEM total (without p/s), centrifuged and washed twice with 1X Stimulation buffer, then resuspended in 1X stimulation buffer and counted. The cells were then prepared as a 1 Million/mL cell suspension in stimulation buffer. Compound powder was first prepared as a 10 mM stock solution in DMSO, then diluted to 2 mM with DMSO, and further prepared as 2X compound in 1X stimulation buffer (Cisbio kit buffer with freshly added IBMX at a final concentration of 0.5 mM). The top dose final concentration was 2000 nM, with a final DMSO concentration of 0.2%, diluted in a 1:3 gradient for 11 gradients.
According to the layout, 5 µl of compound was added to each well; Min wells contained 100 nM GLP-1, and Max wells contained 0.2% DMSO in 1X stimulation buffer. 5 µl of cell suspension was added to each well, centrifuged at 300 rpm at room temperature for 1 min, then incubated at 37°C for 30 min. 2X cAMP standards were prepared in 1X Stimulation buffer, with a top final concentration of 2.8 µM, diluted in a 1:3 gradient for 12 doses. According to the layout, 10 µl was added to each well. Finally, d2 and antibody were diluted 20-fold in 1X Detection buffer (Cisbio kit buffer), and 5 µl of each was added to each well according to the layout. After centrifugation at 300 rpm at room temperature for 1 min, the plate was incubated at room temperature for 2 hr.
Stimulation% was calculated based on Min and Max readings (665nm/615nm ratio) using the formula: 100*(ratio Max well - ratio test well)/(ratio Max well - ratio Min well). The cAMP concentration in each test well was derived from the cAMP standard curve, and the data was analyzed using GraphPad Prism 9 to plot four-parameter fit curves and calculate EC50 values using the formula: Y=Bottom + (Top-Bottom)/(1+10^((LogEC50-X)*HillSlope)). Table 1: cAMP Level Determination in Human GLP-1R Stably Transfected HEK293T Cells

Human GLP-1R, sequence (P43220 24-463): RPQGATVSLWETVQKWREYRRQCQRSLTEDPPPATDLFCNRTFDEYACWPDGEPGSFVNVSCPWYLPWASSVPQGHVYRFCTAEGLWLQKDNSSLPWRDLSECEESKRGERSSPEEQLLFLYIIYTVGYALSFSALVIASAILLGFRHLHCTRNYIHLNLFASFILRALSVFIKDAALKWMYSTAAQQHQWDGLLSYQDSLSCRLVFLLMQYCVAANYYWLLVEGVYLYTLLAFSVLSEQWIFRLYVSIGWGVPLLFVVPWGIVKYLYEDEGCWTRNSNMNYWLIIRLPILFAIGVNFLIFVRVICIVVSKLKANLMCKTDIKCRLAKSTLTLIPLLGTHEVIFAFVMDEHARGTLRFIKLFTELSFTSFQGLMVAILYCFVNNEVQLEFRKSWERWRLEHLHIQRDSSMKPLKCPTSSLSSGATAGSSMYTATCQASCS

Compound	pEC50
Cc1cc(-n2nc3c(c2-n2ccn(-c4ccc(N(C)C5CC5)c(Cl)c4)c2=O)[C@H](C)N(C(=O)c2cc4cc([C@@H]5CCOC(C)(C)C5)ccc4n2[C@@]2(c4noc(=O)[nH]4)C[C@@H]2C)CC3)cc(C)c1F [Compound 67a]	7.29
Cc1cc(-n2nc3c(c2-n2ccn(-c4ccc(N(C)C5CC5)c(Cl)c4)c2=O)[C@H](C)N(C(=O)c2cc4cc([C@H]5CCOC(C)(C)C5)ccc4n2[C@@]2(c4noc(=O)[nH]4)C[C@@H]2C)CC3)cc(C)c1F [Compound 67b]	7.95
Cc1cc(-n2nc3c(c2-n2ccn(-c4ccc(N(C)C5CC5)c(F)c4)c2=O)[C@H](C)N(C(=O)c2cc4cc(C5CCOC(C)(C)C5)ccc4n2[C@@]2(c4noc(=O)[nH]4)C[C@@H]2C)CC3)cc(C)c1F (stereo partly shown) [Compound 68]	7.75
Cc1cc(-n2nc3c(c2-n2ccn(-c4ccc(N(C)C(=O)C5(C(F)(F)F)CC5)cc4)c2=O)[C@H](C)N(C(=O)c2cc4cc(C5CCOC(C)(C)C5)ccc4n2[C@@]2(c4noc(=O)[nH]4)C[C@@H]2C)CC3)cc(C)c1F (stereo partly shown) [Compound 69]	7.99
Cc1cc(-n2nc3c(c2-n2ccn(-c4ccc(N(C)C(=O)C5CC5)c(Cl)c4)c2=O)[C@H](C)N(C(=O)c2cc4cc([C@H]5CCOC(C)(C)C5)ccc4n2[C@@]2(c4noc(=O)[nH]4)C[C@@H]2C)CC3)cc(C)c1F [Compound 70]	8.45
Cc1cc(-n2nc3c(c2-n2ccn(-c4ccc(N(C)C(=O)C5(C)CC5)c(F)c4)c2=O)[C@H](C)N(C(=O)c2cc4cc([C@H]5CCOC(C)(C)C5)ccc4n2[C@@]2(c4nc(=O)o[nH]4)C[C@@H]2C)CC3)cc(C)c1F [Compound 71]	8.40
Cc1cc(-n2nc3c(c2-n2ccn(-c4ccc(N(C)C(=O)C5CCC5)c(F)c4)c2=O)[C@H](C)N(C(=O)c2cc4cc([C@H]5CCOC(C)(C)C5)ccc4n2[C@@]2(c4nc(=O)o[nH]4)C[C@@H]2C)CC3)cc(C)c1F [Compound 72]	8.01
Cc1cc(-n2nc3c(c2-n2ccn(-c4ccc(N(C)C(=O)C5CC5)c(Cl)c4F)c2=O)[C@H](C)N(C(=O)c2cc4cc([C@H]5CCOC(C)(C)C5)ccc4n2[C@@]2(c4nc(=O)o[nH]4)C[C@@H]2C)CC3)cc(C)c1F [Compound 73]	8.20
Cc1cc(-n2nc3c(c2-n2ccn(-c4ccc(N(C)C(=O)C5CC5)c(C(F)(F)F)c4)c2=O)[C@H](C)N(C(=O)c2cc4cc([C@H]5CCOC(C)(C)C5)ccc4n2[C@@]2(c4nc(=O)o[nH]4)C[C@@H]2C)CC3)cc(C)c1F [Compound 74]	8.49
Cc1cc(-n2nc3c(c2-n2ccn(-c4ccc(N(C)C(=O)C5CC5)cc4F)c2=O)[C@H](C)N(C(=O)c2cc4cc([C@H]5CCOC(C)(C)C5)ccc4n2[C@@]2(c4nc(=O)o[nH]4)C[C@@H]2C)CC3)cc(C)c1F [Compound 76]	8.09
Cc1cc(-n2nc3c(c2-n2ccn(-c4ccc(N(C)C(=O)C5CC5)cc4Cl)c2=O)[C@H](C)N(C(=O)c2cc4cc([C@H]5CCOC(C)(C)C5)ccc4n2[C@@]2(c4nc(=O)o[nH]4)C[C@@H]2C)CC3)cc(C)c1F [Compound 77]	8.21
Cc1cc(-n2nc3c(c2-n2ccn(-c4ccc(C#N)c(OC(F)(F)F)c4)c2=O)[C@H](C)N(C(=O)c2cc4cc(C5CCOC(C)(C)C5)ccc4n2[C@@]2(c4nc(=O)o[nH]4)C[C@@H]2C)CC3)cc(C)c1F (stereo partly shown) [Compound 78]	7.69
Cc1cc(-n2nc3c(c2-n2ccn(-c4ccc(C#N)c(C5CC5)c4)c2=O)[C@H](C)N(C(=O)c2cc4cc(C5CCOC(C)(C)C5)ccc4n2[C@@]2(c4nc(=O)o[nH]4)C[C@@H]2C)CC3)cc(C)c1F (stereo partly shown) [Compound 79]	7.75
Cc1cc(-n2nc3c(c2-n2ccn(-c4cccc(C#N)c4)c2=O)[C@H](C)N(C(=O)c2cc4cc(C5CCOC(C)(C)C5)ccc4n2[C@@]2(c4nc(=O)o[nH]4)C[C@@H]2C)CC3)cc(C)c1F (stereo partly shown) [Compound 80]	7.94
Cc1cc(-n2nc3c(c2-n2ccn(-c4ccc(C#N)cc4F)c2=O)[C@H](C)N(C(=O)c2cc4cc(C5CCOC(C)(C)C5)ccc4n2[C@@]2(c4nc(=O)o[nH]4)C[C@@H]2C)CC3)cc(C)c1F (stereo partly shown) [Compound 81]	7.96
Cc1cc(-n2nc3c(c2-n2ccn(-c4ccc(C#N)cc4F)c2=O)[C@H](C)N(C(=O)c2cc4cc([C@@H]5CCOC(C)(C)C5)ccc4n2[C@@]2(c4nc(=O)o[nH]4)C[C@@H]2C)CC3)cc(C)c1F [Compound 81a]	6.41
Cc1cc(-n2nc3c(c2-n2ccn(-c4ccc(C#N)cc4F)c2=O)[C@H](C)N(C(=O)c2cc4cc([C@H]5CCOC(C)(C)C5)ccc4n2[C@@]2(c4nc(=O)o[nH]4)C[C@@H]2C)CC3)cc(C)c1F [Compound 81b]	8.41

Compound	pEC50
Cc1cc(-n2nc3c(c2-n2ccn(-c4ccc(C#N)c(F)c4)c2=O)[C@H](C)N(C(=O)c2cc4cc([C@@H]5CCOC(C)(C)C5)ccc4n2[C@@]2(c4nc(=O)o[nH]4)C[C@@H]2C)CC3)cc(C)c1F [Compound 82a]	6.34
Cc1cc(-n2nc3c(c2-n2ccn(-c4ccc(C#N)c(F)c4)c2=O)[C@H](C)N(C(=O)c2cc4cc([C@H]5CCOC(C)(C)C5)ccc4n2[C@@]2(c4nc(=O)o[nH]4)C[C@@H]2C)CC3)cc(C)c1F [Compound 82b]	8.19
Cc1cc(-n2nc3c(c2-n2ccn(-c4cc(F)c(C#N)cc4F)c2=O)[C@H](C)N(C(=O)c2cc4cc(C5CCOC(C)(C)C5)ccc4n2[C@@]2(c4nc(=O)o[nH]4)C[C@@H]2C)CC3)cc(C)c1F (stereo partly shown) [Compound 83]	7.89
Cc1cc(-n2nc3c(c2-n2ccn(-c4ccc(C(F)(F)F)c(C#N)c4)c2=O)[C@H](C)N(C(=O)c2cc4cc(C5CCOC(C)(C)C5)ccc4n2[C@@]2(c4nc(=O)o[nH]4)C[C@@H]2C)CC3)cc(C)c1F (stereo partly shown) [Compound 84]	8.01
Cc1cc(-n2nc3c(c2-n2ccn(-c4ccc(C#N)cn4)c2=O)[C@H](C)N(C(=O)c2cc4cc(C5CCOC(C)(C)C5)ccc4n2[C@@]2(c4nc(=O)o[nH]4)C[C@@H]2C)CC3)cc(C)c1F (stereo partly shown) [Compound 85]	7.30
Cc1cc(-n2nc3c(c2-n2ccn(-c4ccc(C#N)c(C(F)(F)F)c4)c2=O)[C@H](C)N(C(=O)c2cc4cc(C5CCOC(C)(C)C5)ccc4n2[C@@]2(c4nc(=O)o[nH]4)C[C@@H]2C)CC3)cc(C)c1F (stereo partly shown) [Compound 86]	7.86
Cc1cc(-n2ccn(-c3c4c(nn3-c3cc(C)c(F)c(C)c3)CCN(C(=O)c3cc5cc(C6CCOC(C)(C)C6)ccc5n3[C@@]3(c5nc(=O)o[nH]5)C[C@@H]3C)[C@H]4C)c2=O)ccc1C#N (stereo partly shown) [Compound 87]	7.75
Cc1cc(C#N)ccc1-n1ccn(-c2c3c(nn2-c2cc(C)c(F)c(C)c2)CCN(C(=O)c2cc4cc(C5CCOC(C)(C)C5)ccc4n2[C@@]2(c4nc(=O)o[nH]4)C[C@@H]2C)[C@H]3C)c1=O (stereo partly shown) [Compound 88]	6.69
Cc1cc(-n2nc3c(c2-n2ccn(-c4ccccc4C#N)c2=O)[C@H](C)N(C(=O)c2cc4cc(C5CCOC(C)(C)C5)ccc4n2[C@@]2(c4nc(=O)o[nH]4)C[C@@H]2C)CC3)cc(C)c1F (stereo partly shown) [Compound 89]	6.70
Cc1cc(-n2nc3c(c2-n2ccn(-c4ccc(C#N)cc4)c2=O)[C@H](C)N(C(=O)c2cc4cc(C5CCOC(C)(C)C5)ccc4n2[C@@]2(c4nc(=O)o[nH]4)C[C@@H]2C)CC3)cc(C)c1F (stereo partly shown) [Compound 90]	7.82
Cc1cc(-n2nc3c(c2-n2ccn(-c4ccc(C#N)nc4)c2=O)[C@H](C)N(C(=O)c2cc4cc(C5CCOC(C)(C)C5)ccc4n2[C@@]2(c4nc(=O)o[nH]4)C[C@@H]2C)CC3)cc(C)c1F (stereo partly shown) [Compound 91]	7.42
Cc1cc(-n2nc3c(c2-n2ccn(-c4cc(F)cc(C#N)c4)c2=O)[C@H](C)N(C(=O)c2cc4cc(C5CCOC(C)(C)C5)ccc4n2[C@@]2(c4nc(=O)o[nH]4)C[C@@H]2C)CC3)cc(C)c1F (stereo partly shown) [Compound 92]	7.36
Cc1cc(-n2nc3c(c2-n2ccn(-c4ccc(C#N)c(F)c4F)c2=O)[C@H](C)N(C(=O)c2cc4cc(C5CCOC(C)(C)C5)ccc4n2[C@@]2(c4nc(=O)o[nH]4)C[C@@H]2C)CC3)cc(C)c1F (stereo partly shown) [Compound 93]	7.82
Cc1cc(-n2nc3c(c2-n2ccn(-c4ccc(OC(F)(F)F)c(C#N)c4)c2=O)[C@H](C)N(C(=O)c2cc4cc(C5CCOC(C)(C)C5)ccc4n2[C@@]2(c4nc(=O)o[nH]4)C[C@@H]2C)CC3)cc(C)c1F (stereo partly shown) [Compound 94]	7.67
Cc1cc(-n2nc3c(c2-n2ccn(-c4ccc(C#N)c(OC(F)F)c4)c2=O)[C@H](C)N(C(=O)c2cc4cc(C5CCOC(C)(C)C5)ccc4n2[C@@]2(c4nc(=O)o[nH]4)C[C@@H]2C)CC3)cc(C)c1F (stereo partly shown) [Compound 95]	7.75
Cc1cc(-n2nc3c(c2-n2ccn(-c4ccc(C#N)c(C)c4F)c2=O)[C@H](C)N(C(=O)c2cc4cc(C5CCOC(C)(C)C5)ccc4n2[C@@]2(c4nc(=O)o[nH]4)C[C@@H]2C)CC3)cc(C)c1F (stereo partly shown) [Compound 96]	8.13
Cc1cc(-n2nc3c(c2-n2ccn(-c4ccc(C#N)c(Cl)c4F)c2=O)[C@H](C)N(C(=O)c2cc4cc(C5CCOC(C)(C)C5)ccc4n2[C@@]2(c4nc(=O)o[nH]4)C[C@@H]2C)CC3)cc(C)c1F (stereo partly shown) [Compound 97]	8.11

From EP4737454A1, “GLP-1 RECEPTOR AGONIST, AND PREPARATION METHOD THEREFOR AND USE THEREOF” (Wayne Biotechnology Co., Ltd., priority 2023, dated 2025)
